Patent publication US20250282895A1, “PHARMACEUTICAL COMPOSITIONS OF CHEMOTHERAPEUTIC AGENTS BASED ON BETA-S[…]-AMINO ACID DERIVATIVES” (priority 2021, published 2025)
Structures can show the parent of a compound that is named as a salt.

Experiment: Comparative stability, Formulation 1 (Na3-citrate buffered)
Assay type: physicochemical
Details: Formulation 1, 25° C.
Description: The stability of Compound (1c) either as the HCl salt or as the free base was compared to the stability of melphalan HCl and/or bendamustine HCl in various pharmaceutical formulations and at different concentrations and at temperatures of 0° C. or 25° C.
The stability of the compounds in the pharmaceutical formulations was determined at concentrations within the range from 0.4 mg/mL to 0.5 mg/mL, from 0.9 mg/mL to 1.1 mg/mL, and from 1.8 mg/mL to 2.1 mg/mL.
The amount of the active pharmaceutical ingredient (API) (Compound (1c), melphalan or bendamustine) in the pharmaceutical formulations at different times during storage was determined using HPLC/UV as described in detail for Example 4 and Example 5.
The first formulation included a mixture of 57.5 vol-% 1,2-propylene glycol (1,2-PG), 30 vol-% Kolliphor® HS 15 (Solutol®, Macrogol®, BASF AG/SigmaAldrich), and 12.5 vol-% ethanol (EtOH), and the resulting solution was further diluted and adjusted to pH 6.8 using a pH 8.1-8.3 Na3-citrate buffer (51 mM Na3-citrate·2H2O and 73.6 mM NaCl).
The pH 8.1-8.3 Na3-citrate buffer was prepared form 1.50 g (5.10 mmol) of Na3-citrate. 2H2O (Na3C6H5O7·2H2O; MW 294.10 g/mol; J. T. Baker, 3650-01) and 0.43 g (7.36 mmol) of sodium chloride (NaCl; MW 58.44 g/mol; SigmaAldrich, S9888) dissolved to 100 mL with double-distilled water (dd-H2O) (Arrowhead). The solution was filtered through a 0.45 μm nylon syringe filter, and the pH of the solution was adjusted to 8.1-8.3 with a saturated aqueous solution of sodium hydrogencarbonate (NaHCO3).
The excipient mixture was prepared from 4.77 g (62.7 mmol; 4.6 mL) 1,2-propylene glycol (1,2-PG; MW 76.09 g/mol; d 1.036; Acros Organics, 220870010), 2.52 g (2.40 mL, d 1.05) of melted (15 s microwaving) Kolliphor® HS 15 (BASF AG/SigmaAldrich, 42966), and 0.798 g (17.32 mmol, 1.0 mL) of ethanol (EtOH, MW 46.06 g/mol, d 0.798, KOPTEC, V1016). The clear viscous mixture was warmed to about 40° C. before use (water bath).
A series of 12 mL glass vials each containing 6.1 mg ([…]) of Compound (1c) mono-hydrochloride salt (corresponding to 5.5 mg of Compound (1c) as the free base) were prepared as described in Example 5 through lyophilization of aliquots of an acidified stock solution.
(§1) 660 μL (6 vol-%) of pre-warmed excipient mixture were added to the Compound (1c) mono-hydrochloride salt in the vial. Compound (1c) mono-hydrochloride salt was dissolved with gentle heating and vortexing. The viscous solution was further diluted with 10,340 μL (94 vol-%) of pH 8.1-8.3 Na3-citrate buffer to provide 11.0 mL of a clear, colorless formulation with a concentration of 0.5 mg/ml of Compound (1c) as a monohydrochloride salt and a pH of 6-7.
as §1, with “330” for “660”, “5,170” for “10,340”, “5.5” for “11.0”, “1.0 mg/mL” for “0.5 mg/ml”
as §1, with “165” for “660”, “2,585” for “10,340”, “2.75” for “11.0”, “2.0” for “0.5”
The solutions were placed in glass vials and stored at room temperature (about 25° C.), and the amount of Compound (1c) derived from the mono hydrochloride salt (mono HCl salt) of compound of Formula (1c) was measured at intervals using analytical high pressure liquid chromatography coupled to a UV detector (HPLC/UV) as described in Example 4.

Cc1ccc(N(CCCl)CCCl)cc1C[C@H](N)CC(=O)O [Compound (1c)•HCl, (S)-3-amino-4-(5-(bis(2-chloroethyl)amino)-2-methylphenyl) butanoic acid mono hydrochloride salt]
% API (pH 6.8, 0.5 hours, 0.4-0.5 mg/mL): 79%
% API (pH 6.8, 0.5 hours, 0.9-1.1 mg/mL): 84%
% API (pH 6.8, 0.5 hours, 1.8-2.1 mg/mL): 88%
% API (pH 6.8, 2.0 hours, 0.4-0.5 mg/mL): 52%
% API (pH 6.8, 2.0 hours, 0.9-1.1 mg/mL): 55%
% API (pH 6.8, 2.0 hours, 1.8-2.1 mg/mL): 65%
